# Reference: patent US20090325952A1, “PYRAZOLO[3,4-B]PYRIDINE COMPOUNDS, AND THEIR USE AS PDE4 INHIBITORS” (Glaxo Group Limited, priority 2006, published 2009)
# Structures can show the parent of a compound that is named as a salt.
# Key:
# [1] = test system: atopic dermatitis patients; conditions: cited from earlier work
# [2] = test system: LPS-induced pulmonary neutrophilia in rats; assay: In Vivo Assay 1: LPS induced pulmonary neutrophilia in rats, intratracheal administration; parameters: species or system rat; conditions: rats, i.t. dry powder blended in lactose; for arithmetic mean inhibition of LPS-induced pulmonary neutrophilia: about 2 hours prior to LPS
# From the text: This assay is an animal model of acute inflammation in the lung—specifically neutrophilia induced by lipopolysaccharide (LPS)—and allows the study of putative inhibition of such neutrophilia (anti-inflammatory effect) by an intratracheally (i.t.) administered PDE4 inhibitor (“drug”). The PDE4 inhibitors are suitably in dry powder, aqueous solution or aqueous suspension form. I.t. administration is one model of inhaled administration, allowing topical delivery to the lung.
# Animals: Male CD (Sprague Dawley Derived) rats supplied by Charles River, United Kingdom are housed in groups of 5 rats per cage, acclimatised after delivery for at least 7 days with bedding/nesting material regularly changed, fed on SDS diet R1 pelleted food given ad lib, and supplied with daily-changed pasteurised animal grade drinking water.
# Device for dry powder administration: For these studies, a Penn Century DP-4 dry powder intratracheal (i.t.) delivery device (insufflator) is used for administration of a dry powder blend of vehicle (inhalation grade lactose) and the PDE4 inhibitor compound or salt of the invention (“drug”). Each device is numbered and the sample loading chamber is unscrewed from the main device and weighed. The i.t. delivery needle is also weighed. The drug+lactose blend or inhalation grade lactose (vehicle control) is then added to the sample chamber and this is then re-weighed. The sample chamber is fitted back on to the main device to prevent any drug being lost. This procedure is repeated for all of the Penn century devices to be used in the study (one separate device for each animal). After dosing to the animals, the sample chambers and needles are re-weighed in order to determine the amount of sample that was expelled from the device.
# Device for aqueous solution administration: A blunt dosing needle, whose forward end is slightly angled to the needle axis, is used, with a flexible plastic portex canula inserted into the needle. The portex cannula is inserted into the lumen of the blunt stainless steel dosing needle and this is carefully inserted into the back of the animal's throat and into the trachea via the larynx. A known volume (200 microlitres) of the vehicle (0.2% Tween 80™ in saline) or of the solution (or suspension) drug composition is administered into the trachea using a plastic syringe that is attached to the portex cannula and dosing needle. A new internal cannula is used for each different drug group. After dosing, the needle is removed from the trachea and the animals are removed from the table and continually observed until they recover from the effects of anaesthesia. The animals are then returned to the holding cages and given free access to food and water, and are observed and any unusual behavioural changes noted. (Aqueous suspensions can be handled generally similarly.)
# Drugs and Materials: Lipopolysaccharide (LPS) (Serotype:0127:B8, e.g. from Sigma, UK; e.g. L3129 prepared by phenol extraction) is dissolved in phosphate-buffered saline (PBS).
# For dry powder, aqueous solution or aqueous suspension administration, PDE4 inhibitors are preferably used in size-reduced (e.g. micronised) form, for example according to the Micronisation Example(s) disclosed herein.
# For dry powder administration of the drug, the PDE4 inhibitor compound or salt of the invention (drug) is administered as a dry powder blended with inhalation-grade (respiratory-grade) lactose, i.e. as a dry powder composition. The target quantity of dry powder composition administered i.t. to each animal is 2 mg. This remains constant throughout the studies. To achieve different doses, blends of the drug dry powder and lactose, containing different concentrations of the PDE4 inhibitor compound or salt of the invention (drug), are prepared. […]
# [3] = test system: LPS-induced nasal neutrophilia in rats; assay: In Vivo Assay 2: LPS induced nasal neutrophilia in rats, intranasal administration; parameters: species or system rat; conditions: for inhibition (arithmetic mean) of LPS-induced nasal neutrophilia: rats, i.n. aqueous solution, about 30 minutes prior to LPS
# From the text: This assay is an animal model of acute inflammation in the nose—specifically neutrophilia induced by lipopolysaccharide (LPS)— and allows the study of putative inhibition of such neutrophilia (anti-inflammatory effect) by an intranasally (i.n.) administered PDE4 inhibitor (“drug”). The PDE4 inhibitor is preferably in the form of an aqueous suspension or aqueous solution. Bolus, i.n. administration allows topical delivery to the nose.
# Animals: Male CD rats (Sprague Dawley derived), weighing between 300-350 g are supplied by Charles River, UK and transported to the test site. On arrival at the test site, the animals are housed in groups of 4 or 5 per cage and complete a minimum acclimatisation period of 7 days. The animals are housed in solid bottomed cages using grade 8 sawdust. The bedding and nesting materials are changed 3 times per week. Diet comprises SDS diet R1 pelleted food given ad lib. Pasteurised animal grade drinking water is supplied and changed daily.
# Lipopolysaccharide (Serotype: 0127:B8, e.g. available from Sigma, UK; e.g. L3129 prepared by phenol extraction) is used for all studies and is dissolved in phosphate-buffered saline (PBS).
# Tween 80™ (e.g. available from Sigma e.g. 023K 01575). A mixture of 0.2% Tween 80™ in phosphate buffered saline (PBS) is prepared as vehicle for solution compositions. The Sigma catalogue 2004-2005 and The Handbook of Pharmaceutical Excipients (HPE) 4th edition 2003 pp. 479-483 define Tween 80™ as a brand of polysorbate 80 (according to HPE, polysorbate 80 is also named polyoxyethylene 20 sorbitan monooleate, i.e. having been copolymerised with about 20 moles of ethylene oxide for each mole of sorbitol and/or sorbitol anhydrides used).
# The PDE4 inhibitor compound or salt of the invention (“drug”) is preferably used in size-reduced (e.g. micronised) form, for example according to the Micronisation Example(s) disclosed herein.
# A solution of compound (0.7 mg/ml) is generally prepared by adding 0.2% Tween 80™ in phosphate buffered saline (PBS) to a pre-weighed micronised sample of the drug. The solution composition is sonicated, e.g. for approximately 2 min, and is observed to be a solution (if it is a solution) by visual assessment. A fixed volume of 50 microlitres (25 microlitres into each nostril) of either the drug-containing solution composition or a saline/Tween 80™ vehicle is administered to all animals. Each animal weighs, on average, 350 g. To achieve a dose of 100 μg/kg (100 ug/kg), each animal receives a total of 35 μg (35 ug) of the drug. The dose volume is 50 microlitres (25 microlitres to each nostril), and therefore a concentration of 35 μg (ug) per 50 microlitres (0.7 mg/ml) is prepared. To achieve lower dose concentrations, serial dilutions are prepared in saline/Tween 80™
# Intranasal dosing with the PDE4 inhibitor (drug): Rats are anaesthetised by placing the animals in a sealed Perspex chamber and exposing them to a gaseous mixture of isofluorane (5%), nitrous oxide (2 L/min) and oxygen (1 L/min). Once anaesthetised, the animals are i.n. dosed with vehicle or PDE4 inhibitor aqueous compositions using a 10-100-microlitre-range Gilson pipette and plastic disposable tip. A volume of 25 microlitres is administered into each nostril by carefully inserting the pipette tip into the nostril and dispensing the required volume. When the dosing procedure is completed, the animal is returned to the cage and observed at regular intervals until it had recovered from the effects of the anaesthetic. […]
# [4] = Gravimetric vapour sorption / moisture uptake of solid forms; format: physicochemical
# From the text: In addition, water is believed to be readily lost from the Form 2 hydrate (a) on heating to only slightly above room temperature and/or (b) on reduction in the relative humidity (R^H) (e.g. water appears to be lost from the Form 2 hydrate when the R^H is reduced to 0% R^H).
# COPD patients [5] = conditions: cited from earlier work
# COPD patients [6] = conditions: cited from earlier work; remark: listed apart in the source
# [7] = test system: humans with histories of allergic rhinitis; conditions: orally 500 ug once daily for 9 days, intranasal allergen provocation (pollen extracts); cited from earlier work
structure (smiles),measurement,setting,value
"COc1ccc(C2CNC(=O)NC2)cc1O[C@H]1C[C@@H]2CC[C@H]1C2 [CP80,633]",inflammatory parameters,"[1]; atopic dermatitis patients, 0.5% ointment, twice daily topical application",reductions of inflammatory parameters
"CCc1nc2c(cnn2CC)c(NC2CCOCC2)c1CNC(=O)c1ccc(NC(=O)CCCCCCCN(C)CCO)cc1 [Example 1A2, N-{[1,6-diethyl-4-(tetrahydro-2H-pyran-4-ylamino)-1H-pyrazolo[3,4-b]pyridin-5-yl]methyl}-4-({8-[(2-hydroxyethyl)(methyl)amino]octanoyl}amino)benzamide monohydrochloride]",arithmetic mean inhibition of LPS-induced pulmonary neutrophilia,[2]; about 10 micrograms/kg,about 29%
same,arithmetic mean inhibition of LPS-induced pulmonary neutrophilia,[2]; about 30 micrograms/kg,about 44%
same,arithmetic mean inhibition of LPS-induced pulmonary neutrophilia,[2]; about 100 micrograms/kg,about 39%
same,inhibition of LPS-induced pulmonary neutrophilia,"[2]; about 100 micrograms/kg, about 4 hours prior to LPS",about 60%
same,arithmetic mean inhibition of LPS-induced pulmonary neutrophilia,[2]; about 300 micrograms/kg,about 55%
same,estimated ED50 for inhibition of LPS-induced nasal neutrophilia,"[3]; rat, i.n., micronised, aqueous solution in 0.2% Tween 80 in PBS, about 30 minutes prior to LPS challenge",approximately 4.6 micrograms/kg body weight
same,inhibition (arithmetic mean) of LPS-induced nasal neutrophilia,[3]; about 1 micrograms/kg,essentially no inhibition
same,inhibition (arithmetic mean) of LPS-induced nasal neutrophilia,[3]; about 3 micrograms/kg,small and non-statistically-significant inhibition
same,inhibition (arithmetic mean) of LPS-induced nasal neutrophilia,[3]; about 10 micrograms/kg,about 62%
same,inhibition (arithmetic mean) of LPS-induced nasal neutrophilia,[3]; about 100 micrograms/kg,about 79%
"CCc1nc2c(cnn2CC)c(NC2CCOCC2)c1CNC(=O)c1ccc(NC(=O)CCCCCCCN(C)CCO)cc1 [N-{[1,6-Diethyl-4-(tetrahydro-2H-pyran-4-ylamino)-1H-pyrazolo[3,4-b]pyridin-5-yl]methyl}-4-({8-[(2-hydroxyethyl)(methyl)amino]octanoyl}amino)benzamide monohydrochloride]","moisture uptake, % weight gain","[4]; 25° C., RH increased from 30% to 75%",about 0.5%
"CCc1nc2c(cnn2CC)c(NC2CCOCC2)c1CNC(=O)c1ccc(NC(=O)CCCCCCCN(C)CCO)cc1 [N-{[1,6-diethyl-4-(tetrahydro-2H-pyran-4-ylamino)-1H-pyrazolo[3,4-b]pyridin-5-yl]methyl}-4-({8-[(2-hydroxyethyl)(methyl)amino]octanoyl}amino)benzamide monohydrochloride]",propensity to take up water as relative humidity increases,[4]; compared with Form 1 anhydrate,greater propensity to take up water than the crystalline monohydrochloride Form 1 anhydrate
COc1ccc([C@]2(C#N)CC[C@@H](C(=O)O)CC2)cc1OC1CCCC1 [cilomilast],forced expiratory volume in 1 s (FEV1),COPD patients [5]; 15 mg orally twice daily,appears to improve
same,antiinflammatory effects,COPD patients [6],appears to have antiinflammatory effects
Nc1nc2c([nH]1)c(=O)n(CC1CC1)c(=O)n2CC1CC1 [cipamfylline],efficacy in the treatment of atopic dermatitis patients,"[1]; 0.15% cream, versus vehicle and hydrocortisone 17-butyrate (0.1%) cream","significantly more effective than vehicle, but significantly less effective than hydrocortisone 17-butyrate (0.1%) cream"
O=C(Nc1c(Cl)cncc1Cl)c1ccc(OC(F)F)c(OCC2CC2)c1 [roflumilast],FEV1,COPD patients [5],small improvements
same,rhinal airflow during the treatment period (compared to placebo),[7],effective in improving rhinal airflow
